Assay results from US8192962B2, “Processes for detecting toxic substances” (Daikin Industries, Ltd., priority 2001, dated 2012).

Tested on: Stress protein genes
Assay: DNA chip mRNA expression in yeast, stress protein genes (Table 6)
Assay type: cell-based, Saccharomyces cerevisiae S288C
Method: Yeast (Saccharomyces cerevisiae S288C (α SUC2mal mel gap2 CUP1)) were incubated at 25° C. on YPD medium (yeast extract 1%, polypepton 2%, glucose 2%). One of toxic chemical substances was added to the cells at logarithmic growth phase, and the cells were further incubated for two hours. Cells were cultured without any chemical substance in the same condition, and were used as control. Concentrations of the chemical substances were defined to inhibit the growth of the yeast but not lead to death.
After completion of the incubation, the culture was centrifuged to collect the cells. To the cells, sodium acetate buffer (50 mM sodium acetate, 10 mM EDTA, 1% SDS) was added, and the mixture was shaken at 65° C. for five minutes, followed by returning to room temperature, and obtaining the supernatant, of which the procedures were repeated two times. To the supernatant, ½ amount of a solution of phenol/chloroform was added, and the mixture was centrifuged to give a supernatant, which was added with an equal amount of chloroform, and the mixture was centrifuged to give a supernatant. To the supernatant, an equal amount of isopropanol containing 0.3 M sodium acetate was added, and the mixture was allowed to stand at room temperature for 30 minutes, after which the mixture was centrifuged to give a sediment of the whole RNAs. Seventy % ethanol was added to the sediment, and the mixture was again centrifuged to give a sediment, which was then dried and dissolved in water. mRNA was isolated from the whole RNAs as followings. In view of the fact that a poly A chain is attached to the 3′ terminus of mRNA, a polynucleotide having a poly T structure which was immobilized on the surface of latex beads was used to trap the mRNA, and then the mRNA was washed and eluted with spine column (Oligotex-dT30<Super>mRNA Purification Kit, Takara). Reverse transcription of the mRNA was conducted with a reverse transcriptase (Super Script II Reverse Transcriptase; catalogue No. 18064-014, GibcoBRL) using fluorescence-labeled nucleotides to give cDNAs that were introduced with Cy3-dUTP or Cy5-dUTP during the reverse transcription.
The labeled cDNAs were dissolved in TE buffer (10mM Tris-HCl/1 mM EDTA, pH8.0), and the solution was dropped on the DNA chip containing the whole genes of yeast (DNA Chip Research Inc. Japan) so that the cDNAs were hybridized on the DNA chip at 65° C. for over 12 hours. The fluoresces intensity of the DNA chip was read with a scanner, and the ratio relative to the fluorescence intensity resulting from the absence of chemical substance was estimated as the following, which is shown in Tables 1 to 9: […]

In the case of `[Cl][Hg][Cl]` [(3), HgCl2], the “The level of expressed mRNA in the presence of chemical substance/The level of expressed mRNA in the absence of chemical substance” value (yeast gene YAL005C) is reported as 7.0, the “The level of expressed mRNA in the presence of chemical substance/The level of expressed mRNA in the absence of chemical substance” value (yeast gene YAL015C) is reported as 1.7 and the “The level of expressed mRNA in the presence of chemical substance/The level of expressed mRNA in the absence of chemical substance” value (yeast gene YBL075C) is reported as 3.1. The “The level of expressed mRNA in the presence of chemical substance/The level of expressed mRNA in the absence of chemical substance” value (yeast gene YBL093C) was 0.4, the “The level of expressed mRNA in the presence of chemical substance/The level of expressed mRNA in the absence of chemical substance” value (yeast gene YBR044C) was 0.7 and the “The level of expressed mRNA in the presence of chemical substance/The level of expressed mRNA in the absence of chemical substance” value (yeast gene YBR054W) was 5.4. The “The level of expressed mRNA in the presence of chemical substance/The level of expressed mRNA in the absence of chemical substance” value (yeast gene YBR067C) was 2.8, the “The level of expressed mRNA in the presence of chemical substance/The level of expressed mRNA in the absence of chemical substance” value (yeast gene YBR072W) was 18.4 and the “The level of expressed mRNA in the presence of chemical substance/The level of expressed mRNA in the absence of chemical substance” value (yeast gene YBR126C) was 5.6. For the same compound, the “The level of expressed mRNA in the presence of chemical substance/The level of expressed mRNA in the absence of chemical substance” value (yeast gene YBR169C) was 3.9, the “The level of expressed mRNA in the presence of chemical substance/The level of expressed mRNA in the absence of chemical substance” value (yeast gene YCL035C) was 1.5 and the “The level of expressed mRNA in the presence of chemical substance/The level of expressed mRNA in the absence of chemical substance” value (yeast gene YCR021C) was 4.2. For the same compound, the “The level of expressed mRNA in the presence of chemical substance/The level of expressed mRNA in the absence of chemical substance” value (yeast gene YCR060W) was 0.9, the “The level of expressed mRNA in the presence of chemical substance/The level of expressed mRNA in the absence of chemical substance” value (yeast gene YCR083W) was 1.5 and the “The level of expressed mRNA in the presence of chemical substance/The level of expressed mRNA in the absence of chemical substance” value (yeast gene YDL022W) was 6.9. The “The level of expressed mRNA in the presence of chemical substance/The level of expressed mRNA in the absence of chemical substance” value (yeast gene YDL025C) was 3.5, the “The level of expressed mRNA in the presence of chemical substance/The level of expressed mRNA in the absence of chemical substance” value (yeast gene YDR033W) was 4.6 and the “The level of expressed mRNA in the presence of chemical substance/The level of expressed mRNA in the absence of chemical substance” value (yeast gene YDR077W) was 3.5. For the same compound, the “The level of expressed mRNA in the presence of chemical substance/The level of expressed mRNA in the absence of chemical substance” value (yeast gene YDR098C) was 1.0, the “The level of expressed mRNA in the presence of chemical substance/The level of expressed mRNA in the absence of chemical substance” value (yeast gene YDR155C) was 3.2 and the “The level of expressed mRNA in the presence of chemical substance/The level of expressed mRNA in the absence of chemical substance” value (yeast gene YDR258C) was 2.8. For the same compound, the “The level of expressed mRNA in the presence of chemical substance/The level of expressed mRNA in the absence of chemical substance” value (yeast gene YDR293C) was 1.2, the “The level of expressed mRNA in the presence of chemical substance/The level of expressed mRNA in the absence of chemical substance” value (yeast gene YDR436W) was 1.1 and the “The level of expressed mRNA in the presence of chemical substance/The level of expressed mRNA in the absence of chemical substance” value (yeast gene YDR513W) was 2.3. The “The level of expressed mRNA in the presence of chemical substance/The level of expressed mRNA in the absence of chemical substance” value (yeast gene YDR519W) was 1.7, the “The level of expressed mRNA in the presence of chemical substance/The level of expressed mRNA in the absence of chemical substance” value (yeast gene YEL030W) was 1.9 and the “The level of expressed mRNA in the presence of chemical substance/The level of expressed mRNA in the absence of chemical substance” value (yeast gene YEL039C) was 1.3. The “The level of expressed mRNA in the presence of chemical substance/The level of expressed mRNA in the absence of chemical substance” value (yeast gene YER042W) was 3.1, the “The level of expressed mRNA in the presence of chemical substance/The level of expressed mRNA in the absence of chemical substance” value (yeast gene YER057C) was 3.0 and the “The level of expressed mRNA in the presence of chemical substance/The level of expressed mRNA in the absence of chemical substance” value (yeast gene YER103W) was 5.2. For the same compound, the “The level of expressed mRNA in the presence of chemical substance/The level of expressed mRNA in the absence of chemical substance” value (yeast gene YER125W) was 1.5, the “The level of expressed mRNA in the presence of chemical substance/The level of expressed mRNA in the absence of chemical substance” value (yeast gene YFL014W) was 5.7 and the “The level of expressed mRNA in the presence of chemical substance/The level of expressed mRNA in the absence of chemical substance” value (yeast gene YFL016C) was 1.6. The “The level of expressed mRNA in the presence of chemical substance/The level of expressed mRNA in the absence of chemical substance” value (yeast gene YFL020C) was 1.9, the “The level of expressed mRNA in the presence of chemical substance/The level of expressed mRNA in the absence of chemical substance” value (yeast gene YFR052W) was 1.3 and the “The level of expressed mRNA in the presence of chemical substance/The level of expressed mRNA in the absence of chemical substance” value (yeast gene YGL073W) was 0.9. The “The level of expressed mRNA in the presence of chemical substance/The level of expressed mRNA in the absence of chemical substance” value (yeast gene YGL115W) was 1.2, the “The level of expressed mRNA in the presence of chemical substance/The level of expressed mRNA in the absence of chemical substance” value (yeast gene YGL181W) was 1.2 and the “The level of expressed mRNA in the presence of chemical substance/The level of expressed mRNA in the absence of chemical substance” value (yeast gene YGR088W) was 7.7. The “The level of expressed mRNA in the presence of chemical substance/The level of expressed mRNA in the absence of chemical substance” value (yeast gene YHL028W) was 1.4, the “The level of expressed mRNA in the presence of chemical substance/The level of expressed mRNA in the absence of chemical substance” value (yeast gene YHL046C) was 2.1 and the “The level of expressed mRNA in the presence of chemical substance/The level of expressed mRNA in the absence of chemical substance” value (yeast gene YHR030C) was 0.6. The “The level of expressed mRNA in the presence of chemical substance/The level of expressed mRNA in the absence of chemical substance” value (yeast gene YHR057C) was 0.7, the “The level of expressed mRNA in the presence of chemical substance/The level of expressed mRNA in the absence of chemical substance” value (yeast gene YHR104W) was 15.7 and the “The level of expressed mRNA in the presence of chemical substance/The level of expressed mRNA in the absence of chemical substance” value (yeast gene YIL011W) was 3.9.
